Data set [1] in a line: UV/Vis spectra of methanolic solutions (log ε). The class given is physicochemical. The following applies: methanolic solution c = 3.0 × 10^−5 M; for log ε2(Ch-T): charge-transfer maximum λ2(Ch-T) = 238–240 nm; for log ε1: λ1 = 208–210 nm; for log ε3: λ3 = 274–276 nm. From the text: Electronic properties of the inspected compounds 8a–h (Table 3) were characterized by logarithms of molar absorption coefficients (log ε) of their methanolic solutions (c = 3.0 × 10^−5 M) investigated in the UV/Vis region of the spectrum.
The UV/Vis spectra of methanolic solutions of the analyzed compounds 8a–h (c = 3.0 × 10^−5 M) were estimated on the 8452A Diode Array spectrophotometer HP-8452A (Hewlett Packard, Palo Alto, CA, USA). Methanol for UV-spectroscopy (Merck) was used for the preparation of these solutions.
Results of the UV/Vis analyses were collected and stored digitally using the ChemStation controller software (Agilent Technologies, Waldbronn, Germany). The HP-8452A apparatus measured a complete range of a spectrum from 190 nm to 820 nm.
The log ε values characterizing methanolic solutions of the analyzed compounds 8a–h (c = 3.0 × 10^−5 M) were estimated at λ1 = 208–210 nm, λ2(Ch-T) = 238–240 nm and λ3 = 274–276 nm (Table 3), respectively, in a near ultraviolet (quarz) region of the electromagnetic spectrum between 200 and 400 nm. The log ε values for the observed absorption maxima were calculated according to the Lambert-Beer´s law discussed in [47], for example, and expressed by Equation (8):A = ε × c × l(8) where the A parameter represented the absorbance of a solution, the descriptor ε was a molar absorption coefficient (in the L/mol/cm units) and l was the path length (in the cm units).

Data set [2] has as its system M. tuberculosis CNCTC My 331/88 (identical with H37Rv and ATCC 2794). The data set is described as follows: In vitro antimycobacterial MIC, dilution-micromethod in Šula semisynthetic medium. In kind it is cell-based. The following applies: Mycobacterium tuberculosis.
For data set [3], the system named is M. kansasii CNCTC My 235/80 (identical with ATCC 12478). Described as above. In kind it is cell-based, Mycobacterium kansasii. The settings on record: Mycobacterium kansasii, read-out: MIC, MK My 235/80.
Data set [4] relates to human monocytic leukemia THP-1 cell line. The data set is described as follows: In vitro cytotoxicity screening, LDH assay. The following applies: 24 h.
Where [5] appears, read: 336 h, 14-d/21-d cultivation, read-out: MIC against M. tuberculosis CNCTC My 331/88.
Where [6] appears, read: 336 h, 14 d cultivation, read-out: MIC, MT My 331/88.
Setting [7] is: 504 h, 21 d cultivation, read-out: MIC, MT My 331/88.
Setting [8] is: ATCC12478, 168 h, 7 d cultivation.
Setting [9] is: ATCC12478, 336 h, 14 d cultivation.
[10] abbreviates: ATCC12478, 504 h, 21 d cultivation.

The structures appear in SMILES notation. Where two headings read alike, the source gives them in different places.

This is an account of results in paper PMC6149664, “Synthesis and In Vitro Antimycobacterial Activity of Novel N-Arylpiperazines Containing an Ethane-1,2-diyl Connecting Chain” (Molecules : A Journal of Synthetic Chemistry and Natural …, 2017).

As to `COC(=O)Nc1cccc(C(O)CN2CCN(c3ccccc3F)CC2)c1.Cl` (centres unmarked) [8a, 1-(2-Hydroxy-2-{3-[(methoxycarbonyl)amino]phenyl}ethyl)-4-(2-fluorophenyl)piperazin-1-ium chloride], in data set [1], the “log ε2(Ch-T)” value is 4.30. For the same compound, the “log ε1” value in data set [1] turned out to be 4.30. Also, the “log ε3” value in data set [1] turned out to be 3.45. The MIC in data set [2] (setting [5]) was found to be 250 µM; in data set [2] (setting [6]), 250 µM; in data set [2] (setting [7]), 250 µM; in data set [3] (setting [8]) it was 125 µM; in data set [3] (setting [9]), 500 µM; in data set [3] (setting [10]), 1000 µM. Also, the “Effect on proliferation of the THP-1 cells compared to a control” value in data set [4] is listed as “increased proliferation”.
For the compound `CCCCOC(=O)Nc1cccc(C(O)CN2CCN(c3ccccc3F)CC2)c1.Cl` (centres unmarked) [8d, 1-(2-{3-[(Butoxycarbonyl)amino]phenyl}-2-hydroxyethyl)-4-(2-fluorophenyl)piperazin-1-ium chloride], the “log ε2(Ch-T)” value in data set [1] was determined as 4.32. Also, in data set [1], the “log ε1” value turned out to be 4.31. Besides, the “log ε3” value in data set [1] amounted to 3.49. The MIC stood at 32 µM in data set [2] (setting [5]); 32 µM in data set [2] (setting [6]); 32 µM in data set [2] (setting [7]); 32 µM in data set [3] (setting [8]); 62.5 µM in data set [3] (setting [9]); 62.5 µM in data set [3] (setting [10]). In data set [4] (highest tested concentration of 30 μM), the “Relative survival rate of the THP-1 cells” value worked out at 79%.
In the case of `CCOC(=O)Nc1ccc(C(O)CN2CCN(c3ccccc3F)CC2)cc1.Cl` (centres unmarked) [8f, 1-(2-{4-[(Ethoxycarbonyl)amino]phenyl}-2-hydroxyethyl)-4-(2-fluorophenyl)piperazin-1-ium chloride], the “log ε2(Ch-T)” value in data set [1] is 4.60. Also, the “log ε1” value in data set [1] stood at 4.59. Further, in data set [1], the “log ε3” value came to 3.60. Also, the MIC is 32 µM in data set [2] (setting [6]); 62.5 µM in data set [2] (setting [7]); 125 µM in data set [3] (setting [8]); more than 250 µM in data set [3] (setting [9]); more than 250 µM in data set [3] (setting [10]).
For the compound `CCCCOC(=O)Nc1ccc(C(O)CN2CCN(c3ccccc3F)CC2)cc1.Cl` (centres unmarked) [8h, 1-(2-{4-[(Butoxycarbonyl)amino]phenyl}-2-hydroxyethyl)-4-(2-fluorophenyl)piperazin-1-ium chloride], the “log ε2(Ch-T)” value in data set [1] was determined as 4.42. In addition, the “log ε1” value in data set [1] came out at 4.34. For the same compound, the “log ε3” value in data set [1] was determined as 3.42. For the same compound, the MIC was 8 µM in data set [2] (setting [5]); 8 µM in data set [2] (setting [6]); 8 µM in data set [2] (setting [7]); 62.5 µM in data set [3] (setting [8]); more than 125 µM in data set [3] (setting [9]); more than 125 µM in data set [3] (setting [10]).
On to `CCOC(=O)Nc1cccc(C(O)CN2CCN(c3ccccc3F)CC2)c1.Cl` (centres unmarked) [8b, 1-(2-{3-[(Ethoxycarbonyl)amino]phenyl}-2-hydroxyethyl)-4-(2-fluorophenyl)piperazin-1-ium chloride], for which, in data set [1], the “log ε2(Ch-T)” value was 4.33. Moreover, in data set [1], the “log ε1” value was 4.31. The “log ε3” value in data set [1] is 3.40. Also, the MIC in data set [2] (setting [6]) was 125 µM; in data set [2] (setting [7]), 125 µM; in data set [3] (setting [8]) it was 62.5 µM; in data set [3] (setting [9]) it was 250 µM; in data set [3] (setting [10]), 250 µM.
Consider `CCCOC(=O)Nc1ccc(C(O)CN2CCN(c3ccccc3F)CC2)cc1.Cl` (centres unmarked) [8g, 1-(2-Hydroxy-2-{4-[(propoxycarbonyl)amino]phenyl}ethyl)-4-(2-fluorophenyl)piperazin-1-ium chloride], for which, in data set [1], the “log ε2(Ch-T)” value was determined as 4.54. For the same compound, the “log ε1” value in data set [1] was 4.47. In addition, the “log ε3” value in data set [1] was 3.52. Besides, the MIC was 16 µM in data set [2] (setting [6]); 16 µM in data set [2] (setting [7]); 125 µM in data set [3] (setting [8]); more than 250 µM in data set [3] (setting [9]); more than 250 µM in data set [3] (setting [10]).
Take `CCCOC(=O)Nc1cccc(C(O)CN2CCN(c3ccccc3F)CC2)c1.Cl` (centres unmarked) [8c, 1-(2-Hydroxy-2-{3-[(propoxycarbonyl)amino]phenyl}ethyl)-4-(2-fluorophenyl)piperazin-1-ium chloride]: in data set [1], the “log ε2(Ch-T)” value came out at 4.37. Further, the “log ε1” value in data set [1] was found to be 4.30. For the same compound, the “log ε3” value in data set [1] worked out at 3.42. Moreover, the MIC in data set [2] (setting [6]) was 62.5 µM; in data set [2] (setting [7]), 62.5 µM; in data set [3] (ATCC12478, 168 h), 62.5 µM; in data set [3] (setting [9]) it was 125 µM; in data set [3] (setting [10]), 125 µM.
In the case of `COC(=O)Nc1ccc(C(O)CN2CCN(c3ccccc3F)CC2)cc1.Cl` (centres unmarked) [8e, 1-(2-Hydroxy-2-{4-[(methoxycarbonyl)amino]phenyl}ethyl)-4-(2-fluorophenyl)piperazin-1-ium chloride], in data set [1], the “log ε2(Ch-T)” value was found to be 4.67. In data set [1], the “log ε1” value was 4.61. In addition, the “log ε3” value in data set [1] is recorded as 3.67. The MIC in data set [2] (setting [5]) was 125 µM; in data set [2] (setting [6]) it was 125 µM; in data set [2] (setting [7]) it was 125 µM; in data set [3] (setting [8]), 125 µM; in data set [3] (setting [9]) it was 500 µM; in data set [3] (setting [10]), 500 µM. Besides, in data set [4], the “Effect on proliferation of the THP-1 cells compared to a control” value is reported as “increased proliferation”.
